Measurements taken from patent US20240317762A1, “PHTHALAZINONE-BASED PARP-1 INHIBITORS” (Oregon Health & Science University, priority 2021, published 2024).
Several values for one entry are separate records, joined by “and”; a condition that tells them apart may be missing. Identical values can stand only once.

How the values were obtained:
[1] = system: caspase-3/7 activity in HEK 293 cells; test: cell apoptosis assay (Caspase-Glo 3/7); format: cell-based, human; details: 1 μM, 72 hours
Protocol: HEK 293 or HEK 293 PARP-1 KO cells were seeded in a 96 well plate at 1000-2000 cells per well, a media only “blank” was also included. Following an overnight incubation, cells were treated with 1 μM of indicated inhibitors. “Blank” wells were treated with DMSO. Following a 72 hour inhibitor treatment, the Caspase-Glo 3/7 Assay was completed following the manufacturer instructions (Promega, #G8091). Luminescence was read on a SpectraMax i3 plate reader (Molecular Devices).
(§1) Error bars represent SEM. […] Error bars represent SEM. […] Error bars represent SEM.

D770A PARP-1 = D770A PARP-1 (Homo sapiens, UniProt P09874, D770A); test: fluorescence polarization DNA competition and affinity assays, D770A mutant; format: binding
Chain of D770A PARP-1 (P09874 whole entry D770A, the tested form may be a part): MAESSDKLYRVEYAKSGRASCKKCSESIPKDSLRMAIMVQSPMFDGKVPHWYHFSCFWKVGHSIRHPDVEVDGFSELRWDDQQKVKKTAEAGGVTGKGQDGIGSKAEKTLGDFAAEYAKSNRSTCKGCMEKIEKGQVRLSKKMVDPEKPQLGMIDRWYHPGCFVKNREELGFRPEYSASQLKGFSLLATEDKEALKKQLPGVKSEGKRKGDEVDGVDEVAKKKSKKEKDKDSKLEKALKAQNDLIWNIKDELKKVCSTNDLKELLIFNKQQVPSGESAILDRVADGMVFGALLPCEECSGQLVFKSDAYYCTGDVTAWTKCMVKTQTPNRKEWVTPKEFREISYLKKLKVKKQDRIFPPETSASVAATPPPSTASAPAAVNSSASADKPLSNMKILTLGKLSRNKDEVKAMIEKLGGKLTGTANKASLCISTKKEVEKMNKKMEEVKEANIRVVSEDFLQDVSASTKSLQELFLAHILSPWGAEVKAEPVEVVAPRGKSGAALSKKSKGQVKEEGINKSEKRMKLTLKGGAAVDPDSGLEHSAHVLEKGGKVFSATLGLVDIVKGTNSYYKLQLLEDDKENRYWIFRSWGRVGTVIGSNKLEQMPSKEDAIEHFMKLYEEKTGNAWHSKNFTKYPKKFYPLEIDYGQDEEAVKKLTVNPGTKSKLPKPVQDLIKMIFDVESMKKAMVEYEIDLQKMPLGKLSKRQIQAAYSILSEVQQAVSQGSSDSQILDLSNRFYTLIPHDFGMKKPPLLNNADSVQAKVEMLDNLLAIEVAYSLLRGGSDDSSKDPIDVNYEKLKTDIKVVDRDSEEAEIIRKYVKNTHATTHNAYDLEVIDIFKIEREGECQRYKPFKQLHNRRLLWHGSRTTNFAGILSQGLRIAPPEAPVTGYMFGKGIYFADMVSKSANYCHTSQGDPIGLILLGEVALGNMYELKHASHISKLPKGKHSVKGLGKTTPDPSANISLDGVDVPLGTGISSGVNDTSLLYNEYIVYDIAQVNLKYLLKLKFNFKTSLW
Protocol: (§2) FIG. 4B) Helical domain (pink cartoon) movement observed during the simulation, the red arrows indicate length and direction of movement. FIG. 4C) The residue-residue distance observed between the Ca atoms R878-D770 and Y889-V758, the increased distance sampling corresponds to the helical domain movement. FIG. 4D) PARP-1 WT, D770A, or R878A (40 nM) was incubated with a dumbbell DNA probe carrying an internal FAM group and a central nick at 20 nM with or without compound (25 μM) for 30 minutes. An unlabeled competitor was added and the decrease in fluorescence polarization was measured across time. FIG. 4E) The Kd of PARP-1 WT, D770A, or R878A for a DNA dumbbell probe containing a central nick (5 nM) was measured in a fluorescence polarization assay with and without inhibitor (5 μM). Error bars represent Standard Error of the Mean (SEM) (n=3).

PARP-1 [2] = biological target: T1, PARP-1 (Homo sapiens, UniProt P09874); test: in vitro PARP-1 auto-PARylation assay (SRPK2 plate assay); format: biochemical; parameters: The full-length WT PARP-1 protein used in these assays; made in house; details: read-out: IC50 against PARP-1 catalytic activity (auto-PARylation)
T1 sequence (P09874 whole entry): as the sequence (P09874 whole entry D770A, the tested form may be a part) above, with A770D counted along it
Protocol: IC50 SRPK2 Plate Assays were performed as previously described (21). Log(inhibitor) versus response curves were fit using non-linear regression with variable slope. Mean IC50 values for each compound were derived from a minimum of three separate replicates.

R878A PARP-1 [3] = biological target: T2, R878A PARP-1 (Homo sapiens, UniProt P09874, R878A); test: catalytic activity of PARP-1 mutant expressed in HEK 293 cells, R878A; format: biochemical; details: 3 μM AZ0108
T2 sequence (P09874 whole entry R878A): as the sequence (P09874 whole entry D770A, the tested form may be a part) above, with A770D, R878A counted along it

R878A PARP-1 [4] = biological target: T2, R878A PARP-1; test: fluorescence polarization DNA competition and affinity assays, R878A mutant; format: binding; details: with AZ0108
Protocol: as §2

HEK 293T cells [5] = test: cell proliferation (MTT) assay; format: cell-based, human
Protocol: HEK 293T or HEK 293 PARP-1 KO cells were seeded in a 96 well plate at 1000-2000 cells per well. Following an overnight incubation, MTT reagent, 3-(4,5-dimethylthiazol-2-yl)-2,5-diphenyltetrazolium bromide, or a dosage curve of indicated inhibitor was added to each well in quadruplicate. Following a 3-hour incubation at 37° C., wells containing MTT reagent, were aspirated and lysed with 100 μl DMSO. These wells acting as a no growth control were collected, saved @ −20° C., and replaced with 100 μl water. The plate was placed back into the incubator for a total of 72 hours of inhibitor treatment prior to MTT reagent being added for a final time. Following a 3 hour incubation with the reagent, wells were aspirated, and 100 μl DMSO were added to each well, while the no growth control sample was added back to the plate. Absorbance was read on a SpectraMaxi3 plate reader (Molecular Devices). Percent growth was calculated for analysis. Statistical significance was assigned using individual t-tests between conditions for each inhibitor dosage.
as §1

PARP-1 [6] = biological target: T1, PARP-1; test: PARP-1 auto-PARylation activity assay in cells; format: cell-based
Protocol: Cells were washed with PBS, and lysed in RIPA buffer (50 mM Tris-HCl [pH 8.0], 150 mM NaCl, 0.1% SDS, 1% Triton X-100, 1× cOmplete™ protease inhibitors (Roche), and 1 μM Veliparib). […] Following quantification, 4× Laemmli sample buffer with 5% β-mercaptoethanol was added to 25-50 μg of protein.
Membrane blots were blocked with 5% milk-PBST for 1 h at RT, followed by incubation with a rabbit pan-ADP-ribose binding reagent (Cell Signaling), a rabbit PARP-1 antibody (Bethyl Laboratories), or a mouse b-actin antibody (Santa Cruz Biotechnology) for 2 h at RT, followed by incubation with HRP-conjugated secondary antibodies. […] Blots were imaged for chemiluminescent signal on a ChemiDoc MP system (BioRad). Statistical significance was established through multiple unpaired t-tests with nonlinear regression fit analysis.
FIGS. 5A-5F. […] An unlabeled competitor was added and the decrease in fluorescence polarization was measured across time. […] Error bars represent SEM. […] Error bars represent SEM. […] Cells were subsequently lysed using RIPA buffer, run out on SDS-PAGE, and probed for ADPr (Cell Signaling) and PARP-1 (Bethyl Laboratories). FIG. 5F) Quantification of western blot images. ADPr values are normalized to PARP-1 within each replicate and plotted as percentage compared to DMSO. Error bars indicate SEM (n=3).

HEK 293T cells [7] = test: DNA synthesis assay (EdU incorporation); format: cell-based, human; details: 1 μM, 18 hours, then 10 μM EdU 1.5 hours
Protocol: HEK 293T cells were seeded onto poly-d-lysine treated glass coverslips. […] After incubation, cells were treated with 10 μM EdU (5-ethynyl-2′-deoxyuridine) for 1.5 hours and subsequently fixed with 4% Sucrose/4% Paraformaldehyde in PBS for 15 minutes at RT. Cells were washed 2× with 3% BSA in PBS and permeabilized with 0.3% Triton X-100 in PBS for 20 minutes at RT. After two additional 3% BSA in PBS washes, coverslips were incubated with 500 μl Click-iT reaction cocktail [1× Click-iT reaction buffer, 2 mM CuSO4, 5 μM TAMRA Azide, Reaction buffer additive] for 30 minutes at room temperature (RT) protected from the light. Cells were washed once more with 3% BSA in PBS and twice more with 1×PBS before being mounted using ProLong Gold antifade reagent with DAPI (Invitrogen). All immunofluorescence images were taken on a Zeiss ApoTome2 on Axiolmager and analyzed using Zeiss software. Mean intensity of the TAMRA signal was measured after imposing DAPI masks over the nucleus of each cell. All cells within a 20× image, was analyzed (˜3000 cells/condition).
as §1

PARP-1 [8] = biological target: T1, PARP-1; test: fluorescence polarization DNA binding affinity assay; details: 5 μM inhibitor
Description: The full-length WT PARP-1 protein used in these assays was purified as described previously (30).

Substance: (S)-4-(difluoro(3-(6-methyl-3-(trifluoromethyl)-5,6,7,8-tetrahydro-[1,2,4]triazolo[4,3-a]pyrazine-7-carbonyl)phenyl)methyl)phthalazin-1(2H)-one [AZ0108]
- reduction of caspase-3/7 activity [1]: 75%
- D770A PARP-1's affinity for DNA (D770A PARP-1; 5 μM inhibitor): nor did it change
- exchange of the D770A PARP-1:labled DNA with unlabeled DNA (D770A PARP-1; 25 μM compound): did not impact
- IC50 (PARP-1 [2]): 12 nM
- inhibition of R878A PARP-1 activity (R878A PARP-1 [3]): inhibited
- DNA binding to R878A PARP-1 (R878A PARP-1 [4]): similarly unaffected
- EC50 (HEK 293T cells [5]; MTT, 72 h, read-out: EC50 cell growth): 30 nM and 29.7 nM
- right-shift of the EC50 value for AZ0108 on cell growth (HEK 293T cells [5]; dual-treated with olaparib): 10 fold
- EC50 (PARP-1 [6]; 30 min inhibitor, then PARG inhibitor PDD00017273, read-out: EC50 inhibiting PARP-1 PARylation in HEK 293 cells): 42.5 nM
- IC50 (PARP-1 [6]; FIG. 5F, nonlinear regression, read-out: IC50 of dose curves, quantification of western blot (ADPr normalized to PARP-1)): 42.5 nM
- block of EdU incorporation (HEK 293T cells [7]): 65%
- increase of the affinity of PARP-1 for DNA (PARP-1 [8]; DNA dumbbell probe with central nick 5 nM): 4 fold
- effect on the affinity of PARP-1 for nicked DNA (PARP-1 [8]; compared to DMSO control): more pronounced effect on DNA binding to PARP-1
